Laboratory results reported in patent US20100137266A1, “TREATMENT OF INSULIN RESISTANCE AND DISORDERS ASSOCIATED THEREWITH” (UNIVERSITETET I OSLO, priority 2006, published 2010).

Test: Stability in bovine plasma
Format: in vitro ADME
Conditions: 300 μM in citrated bovine plasma, 37° C., 24 h; HPLC detection at 210 nm
Method: A stock solution of 22(S)-hydroxycholesterol diglutarate was prepared by adding 50 mg of the compound to a 50 ml volumetric flask, followed by 0.5 ml DMSO and deionised water to 50 ml, giving a final concentration of 1.0 mg/ml. The plasma solution was prepared by adding 0.38 ml of the 22(S)-hydroxycholesterol diglutarate stock solution to 1.62 ml of citrated bovine plasma, giving a final concentration of 300 μM. The citrated bovine plasma was incubated at 37° C. for 24 h. Proteins were discarded from the samples by centrifugal filtration before 50 μl volume of the filtrate was injected with an autosampler onto an analytical column (C18 reverse phase system) The mobile phase consisted of a gradient composed of water and acetonitrile (20→50% from 0 to 10 min, the mobile phase increased from 0.5 ml/min→1.0 ml/min in 10 minutes). Eluted compounds were detected at 210 nm.

Compound: CC(C)CCC(OC(=O)CCCC(=O)O)[C@@H](C)C1CCC2C3CC=C4CC(OC(=O)CCCC(=O)O)CCC4(C)C3CCC21C (stereo partly drawn) [22(S)-hydroxycholesterol diglutarate, 22(S)-Hydroxycholesterol Diglutarate]
- detection of compound after incubation in plasma: not possible to detect
